Assay results from the kinase profiling compilation of Christmann-Franck et al. (2016).

Assays:
Assay in all cases: KINOMEscan competition binding
Details in all cases: compound 10.0 µM
[1] = molecular target: MAP3K11 (human) (UniProt Q16584)
[2] = molecular target: CLK2 (human) (UniProt P49760)
[3] = molecular target: PRKACA (human) (UniProt P17612)
[4] = molecular target: PRKACB (human) (UniProt P22694)
[5] = molecular target: ANKK1 (human) (UniProt Q8NFD2)
[6] = molecular target: CDK5 (human) (UniProt Q00535)
[7] = molecular target: ERBB2 (human) (UniProt P04626)
[8] = molecular target: MAPK9 (human) (UniProt P45984)
[9] = molecular target: CSNK2A1 (human) (UniProt P68400)
[10] = molecular target: AURKB (human) (UniProt Q96GD4)
[11] = molecular target: AKT2 (human) (UniProt P31751)
[12] = molecular target: LATS2 (human) (UniProt Q9NRM7)
[13] = molecular target: NEK1 (human) (UniProt Q96PY6)
[14] = molecular target: CDK15 (human) (UniProt Q96Q40)
[15] = molecular target: MINK1 (human) (UniProt Q8N4C8)
[16] = molecular target: ACVR2A (human) (UniProt P27037)
[17] = molecular target: SRPK2 (human) (UniProt P78362)
[18] = molecular target: STK33 (human) (UniProt Q9BYT3)
[19] = molecular target: MKNK2 (human) (UniProt Q9HBH9)
[20] = molecular target: PAK1 (human) (UniProt Q13153)
[21] = molecular target: NTRK1 (human) (UniProt P04629)
[22] = molecular target: MYLK (human) (UniProt Q15746)
[23] = molecular target: SRPK1 (human) (UniProt Q96SB4)
[24] = system: EIF2AK4 KD2 (human), Q9P2K8 [S808G]
[25] = molecular target: HCK (human) (UniProt P08631)
[26] = molecular target: CDK17 (human) (UniProt Q00537)
[27] = molecular target: EPHB1 (human) (UniProt P54762)
[28] = molecular target: NTRK2 (human) (UniProt Q16620)
[29] = molecular target: DMPK (human) (UniProt Q09013)
[30] = molecular target: MAP4K5 (human) (UniProt Q9Y4K4)
[31] = molecular target: STK17A (human) (UniProt Q9UEE5)
[32] = molecular target: ERBB4 (human) (UniProt Q15303)
[33] = molecular target: MAPK15 (human) (UniProt Q8TD08)
[34] = molecular target: RPS6KA6 KD1 (human) (UniProt Q9UK32)
[35] = molecular target: CAMK2A (human) (UniProt Q9UQM7)
[36] = molecular target: LCK (human) (UniProt P06239)
[37] = molecular target: MAP2K4 (human) (UniProt P45985)
[38] = molecular target: MAP3K9 (human) (UniProt P80192)
[39] = molecular target: MUSK (human) (UniProt O15146)
[40] = molecular target: PDGFRB (human) (UniProt P09619)

Chain of MINK1 (human) (Q8N4C8 whole entry, looked up): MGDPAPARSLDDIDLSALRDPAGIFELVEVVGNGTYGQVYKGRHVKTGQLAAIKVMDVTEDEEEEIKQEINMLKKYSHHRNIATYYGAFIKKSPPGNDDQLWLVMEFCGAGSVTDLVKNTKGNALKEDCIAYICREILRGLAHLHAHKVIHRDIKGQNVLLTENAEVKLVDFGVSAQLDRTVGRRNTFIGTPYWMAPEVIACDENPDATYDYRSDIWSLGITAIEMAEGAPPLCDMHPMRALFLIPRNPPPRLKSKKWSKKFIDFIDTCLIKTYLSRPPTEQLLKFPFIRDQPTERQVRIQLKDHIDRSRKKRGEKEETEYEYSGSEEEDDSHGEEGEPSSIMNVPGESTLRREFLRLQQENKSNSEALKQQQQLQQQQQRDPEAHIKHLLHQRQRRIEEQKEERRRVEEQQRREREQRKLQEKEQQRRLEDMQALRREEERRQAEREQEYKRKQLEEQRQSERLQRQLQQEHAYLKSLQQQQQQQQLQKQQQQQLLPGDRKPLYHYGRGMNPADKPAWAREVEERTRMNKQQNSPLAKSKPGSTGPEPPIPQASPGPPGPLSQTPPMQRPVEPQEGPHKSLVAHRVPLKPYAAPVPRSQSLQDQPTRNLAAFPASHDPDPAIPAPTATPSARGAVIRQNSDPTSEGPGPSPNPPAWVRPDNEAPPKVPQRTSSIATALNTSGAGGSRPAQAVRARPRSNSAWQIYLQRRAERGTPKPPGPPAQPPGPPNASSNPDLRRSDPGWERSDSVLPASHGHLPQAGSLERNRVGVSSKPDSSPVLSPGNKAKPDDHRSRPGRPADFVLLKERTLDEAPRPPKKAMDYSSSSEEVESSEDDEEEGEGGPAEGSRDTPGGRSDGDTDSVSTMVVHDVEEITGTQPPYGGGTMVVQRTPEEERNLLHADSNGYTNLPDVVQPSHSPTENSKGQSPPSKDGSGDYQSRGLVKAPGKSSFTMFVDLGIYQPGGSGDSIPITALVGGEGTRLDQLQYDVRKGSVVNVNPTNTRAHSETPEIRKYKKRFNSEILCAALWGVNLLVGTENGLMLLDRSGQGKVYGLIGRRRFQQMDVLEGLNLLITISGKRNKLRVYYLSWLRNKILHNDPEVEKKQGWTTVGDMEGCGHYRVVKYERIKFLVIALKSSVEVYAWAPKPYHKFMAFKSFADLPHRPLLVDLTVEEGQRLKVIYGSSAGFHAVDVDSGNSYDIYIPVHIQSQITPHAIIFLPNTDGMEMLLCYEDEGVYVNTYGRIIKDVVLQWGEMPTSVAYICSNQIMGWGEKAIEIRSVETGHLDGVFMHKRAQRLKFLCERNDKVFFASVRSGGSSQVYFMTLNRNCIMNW
Chain of AURKB (human) (Q96GD4 whole entry, looked up): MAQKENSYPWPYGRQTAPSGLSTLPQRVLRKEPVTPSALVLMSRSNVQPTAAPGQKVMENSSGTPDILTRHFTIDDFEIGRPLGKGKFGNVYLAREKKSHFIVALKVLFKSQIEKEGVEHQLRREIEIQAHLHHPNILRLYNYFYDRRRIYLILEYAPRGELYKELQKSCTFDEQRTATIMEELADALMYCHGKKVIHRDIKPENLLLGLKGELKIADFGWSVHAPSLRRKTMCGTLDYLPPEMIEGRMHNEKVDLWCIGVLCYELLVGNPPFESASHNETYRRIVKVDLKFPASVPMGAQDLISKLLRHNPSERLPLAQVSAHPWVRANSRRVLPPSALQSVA
Chain of STK17A (human) (Q9UEE5 whole entry, looked up): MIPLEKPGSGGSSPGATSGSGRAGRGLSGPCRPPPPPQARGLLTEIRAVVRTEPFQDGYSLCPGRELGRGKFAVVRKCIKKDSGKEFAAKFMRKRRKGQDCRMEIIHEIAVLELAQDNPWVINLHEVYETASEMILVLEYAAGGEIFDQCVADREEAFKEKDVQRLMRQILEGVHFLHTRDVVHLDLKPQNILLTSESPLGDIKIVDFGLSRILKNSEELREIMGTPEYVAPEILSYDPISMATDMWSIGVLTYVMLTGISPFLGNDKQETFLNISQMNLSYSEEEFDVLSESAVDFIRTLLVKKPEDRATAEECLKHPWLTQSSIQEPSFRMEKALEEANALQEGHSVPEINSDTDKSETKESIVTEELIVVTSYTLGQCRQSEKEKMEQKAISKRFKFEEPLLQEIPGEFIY
Chain of CLK2 (human) (P49760 whole entry, looked up): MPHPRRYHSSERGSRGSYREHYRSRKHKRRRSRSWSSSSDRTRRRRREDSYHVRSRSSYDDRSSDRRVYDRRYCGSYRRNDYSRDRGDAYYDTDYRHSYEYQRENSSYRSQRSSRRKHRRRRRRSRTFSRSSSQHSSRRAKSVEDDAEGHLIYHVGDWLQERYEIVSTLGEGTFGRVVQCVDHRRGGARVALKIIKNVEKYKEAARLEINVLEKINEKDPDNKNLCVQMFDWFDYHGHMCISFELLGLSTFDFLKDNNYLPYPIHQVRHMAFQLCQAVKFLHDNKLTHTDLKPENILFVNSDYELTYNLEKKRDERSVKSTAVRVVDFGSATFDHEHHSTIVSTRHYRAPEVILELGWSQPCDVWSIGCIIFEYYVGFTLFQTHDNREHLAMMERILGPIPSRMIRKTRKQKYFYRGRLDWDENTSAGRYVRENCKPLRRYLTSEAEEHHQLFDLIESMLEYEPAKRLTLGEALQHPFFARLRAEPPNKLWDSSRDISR
Chain of HCK (human) (P08631 whole entry, looked up): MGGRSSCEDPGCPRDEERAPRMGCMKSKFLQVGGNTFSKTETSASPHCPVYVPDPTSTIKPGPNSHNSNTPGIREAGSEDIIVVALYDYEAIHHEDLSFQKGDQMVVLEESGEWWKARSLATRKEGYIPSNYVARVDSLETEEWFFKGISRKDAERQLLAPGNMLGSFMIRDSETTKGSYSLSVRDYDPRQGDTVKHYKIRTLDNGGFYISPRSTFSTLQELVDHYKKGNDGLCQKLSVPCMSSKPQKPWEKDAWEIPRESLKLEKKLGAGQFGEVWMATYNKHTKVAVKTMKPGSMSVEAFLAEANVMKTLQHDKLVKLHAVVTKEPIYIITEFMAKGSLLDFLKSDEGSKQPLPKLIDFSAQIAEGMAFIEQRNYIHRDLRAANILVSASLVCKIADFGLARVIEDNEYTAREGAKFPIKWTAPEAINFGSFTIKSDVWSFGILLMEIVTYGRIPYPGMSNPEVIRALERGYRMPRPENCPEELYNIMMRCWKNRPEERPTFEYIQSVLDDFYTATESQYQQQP
Chain of ACVR2A (human) (P27037 whole entry, looked up): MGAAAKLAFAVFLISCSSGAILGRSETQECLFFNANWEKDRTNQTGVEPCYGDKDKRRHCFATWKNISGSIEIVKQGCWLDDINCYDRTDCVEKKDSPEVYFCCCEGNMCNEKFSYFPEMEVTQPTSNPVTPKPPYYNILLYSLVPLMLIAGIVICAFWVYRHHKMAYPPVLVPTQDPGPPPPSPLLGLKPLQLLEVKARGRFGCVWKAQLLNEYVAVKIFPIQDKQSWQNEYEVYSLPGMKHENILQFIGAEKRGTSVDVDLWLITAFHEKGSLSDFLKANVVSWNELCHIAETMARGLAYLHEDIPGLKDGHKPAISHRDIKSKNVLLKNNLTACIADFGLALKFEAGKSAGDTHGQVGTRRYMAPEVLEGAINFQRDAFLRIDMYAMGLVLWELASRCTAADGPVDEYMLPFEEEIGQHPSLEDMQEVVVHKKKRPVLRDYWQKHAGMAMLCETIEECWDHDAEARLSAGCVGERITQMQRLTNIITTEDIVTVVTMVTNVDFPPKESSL
Chain of AKT2 (human) (P31751 whole entry, looked up): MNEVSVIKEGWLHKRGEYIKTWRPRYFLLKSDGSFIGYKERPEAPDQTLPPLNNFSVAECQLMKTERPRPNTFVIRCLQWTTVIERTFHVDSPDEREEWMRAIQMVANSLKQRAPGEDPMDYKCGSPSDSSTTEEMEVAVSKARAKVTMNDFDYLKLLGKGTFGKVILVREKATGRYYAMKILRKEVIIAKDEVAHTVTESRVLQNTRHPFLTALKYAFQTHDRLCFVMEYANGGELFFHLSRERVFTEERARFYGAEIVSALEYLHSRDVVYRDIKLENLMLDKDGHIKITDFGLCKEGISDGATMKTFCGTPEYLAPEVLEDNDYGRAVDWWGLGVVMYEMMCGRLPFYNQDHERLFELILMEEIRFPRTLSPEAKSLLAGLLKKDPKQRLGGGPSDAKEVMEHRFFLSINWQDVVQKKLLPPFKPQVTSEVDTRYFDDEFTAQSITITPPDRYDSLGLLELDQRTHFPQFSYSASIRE
Chain of LCK (human) (P06239 whole entry, looked up): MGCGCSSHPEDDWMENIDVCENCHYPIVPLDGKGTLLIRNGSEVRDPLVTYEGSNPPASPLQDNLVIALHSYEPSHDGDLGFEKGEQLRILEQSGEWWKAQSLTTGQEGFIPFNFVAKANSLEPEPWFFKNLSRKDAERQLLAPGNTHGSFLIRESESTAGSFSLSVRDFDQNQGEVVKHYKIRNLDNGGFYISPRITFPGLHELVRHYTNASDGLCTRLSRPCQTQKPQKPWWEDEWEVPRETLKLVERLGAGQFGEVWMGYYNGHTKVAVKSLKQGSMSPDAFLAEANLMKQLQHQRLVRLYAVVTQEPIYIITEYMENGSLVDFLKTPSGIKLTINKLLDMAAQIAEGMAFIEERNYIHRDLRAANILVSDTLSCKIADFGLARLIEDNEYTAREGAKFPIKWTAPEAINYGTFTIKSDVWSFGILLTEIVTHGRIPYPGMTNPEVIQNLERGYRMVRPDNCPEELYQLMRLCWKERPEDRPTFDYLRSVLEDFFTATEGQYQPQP
Chain of CDK5 (human) (Q00535 whole entry, looked up): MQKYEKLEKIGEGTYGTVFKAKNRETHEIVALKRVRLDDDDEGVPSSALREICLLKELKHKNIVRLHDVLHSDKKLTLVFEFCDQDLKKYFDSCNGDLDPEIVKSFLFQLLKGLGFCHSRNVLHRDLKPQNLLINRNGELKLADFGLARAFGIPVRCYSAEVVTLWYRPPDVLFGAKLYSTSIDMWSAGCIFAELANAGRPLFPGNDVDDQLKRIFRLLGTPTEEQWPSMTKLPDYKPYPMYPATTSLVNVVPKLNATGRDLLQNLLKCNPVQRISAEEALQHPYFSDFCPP

Row | SMILES | kinase still bound, per cent of control [1] [%] | kinase still bound, per cent of control [2] [%] | kinase still bound, per cent of control [3] [%] | kinase still bound, per cent of control [4] [%] | kinase still bound, per cent of control [5] [%] | kinase still bound, per cent of control [6] [%] | kinase still bound, per cent of control [7] [%] | kinase still bound, per cent of control [8] [%] | kinase still bound, per cent of control [9] [%] | kinase still bound, per cent of control [10] [%] | kinase still bound, per cent of control [11] [%] | kinase still bound, per cent of control [12] [%] | kinase still bound, per cent of control [13] [%] | kinase still bound, per cent of control [14] [%] | kinase still bound, per cent of control [15] [%] | kinase still bound, per cent of control [16] [%] | kinase still bound, per cent of control [17] [%] | kinase still bound, per cent of control [18] [%] | kinase still bound, per cent of control [19] [%] | kinase still bound, per cent of control [20] [%] | further results
1 | Cc1ccc(NC(=O)c2cccc(C(C)(C)C#N)c2)cc1Nc1ccc2ncn(C)c(=O)c2c1 | 91 | 100 | 100 | 100 | 100 | 100 | 72 | 1.8 | 88 | 100 | 100 | 99 | 100 | 100 | 7.2 | 100 | 100 | 99 | 99 | 100 | kinase still bound, per cent of control [21]: 98%; kinase still bound, per cent of control [22]: 98%; kinase still bound, per cent of control [23]: 100%; kinase still bound, per cent of control [24]: 85%; kinase still bound, per cent of control [25]: 3.1%; kinase still bound, per cent of control [26]: 100%; kinase still bound, per cent of control [27]: 1%; kinase still bound, per cent of control [28]: 77%; kinase still bound, per cent of control [29]: 90%; kinase still bound, per cent of control [30]: 59%; kinase still bound, per cent of control [31]: 100%; kinase still bound, per cent of control [32]: 34%; kinase still bound, per cent of control [33]: 100%; kinase still bound, per cent of control [34]: 87%; kinase still bound, per cent of control [35]: 100%; kinase still bound, per cent of control [36]: 0.7%; kinase still bound, per cent of control [37]: 100%; kinase still bound, per cent of control [38]: 94%; kinase still bound, per cent of control [39]: 92%; kinase still bound, per cent of control [40]: 0%
2 | COc1cc(C(=O)NC2CCN(C)CC2)ccc1Nc1ncc2c(n1)N(C1CCCC1)C(C)CC(=O)N2C (stereo not given) | 100 | 6.2 | 100 | 100 | 100 | 100 | 100 | 100 | 100 | 100 | 100 | 100 | 100 | 100 | 100 | 100 | 100 | 3.6 | 100 | 100 | kinase still bound, per cent of control [21]: 100%; kinase still bound, per cent of control [22]: 2.8%; kinase still bound, per cent of control [23]: 100%; kinase still bound, per cent of control [24]: 100%; kinase still bound, per cent of control [25]: 100%; kinase still bound, per cent of control [26]: 100%; kinase still bound, per cent of control [27]: 100%; kinase still bound, per cent of control [28]: 100%; kinase still bound, per cent of control [29]: 100%; kinase still bound, per cent of control [30]: 100%; kinase still bound, per cent of control [31]: 100%; kinase still bound, per cent of control [32]: 100%; kinase still bound, per cent of control [33]: 100%; kinase still bound, per cent of control [34]: 100%; kinase still bound, per cent of control [35]: 21%; kinase still bound, per cent of control [36]: 100%; kinase still bound, per cent of control [37]: 100%; kinase still bound, per cent of control [38]: 100%; kinase still bound, per cent of control [39]: 100%; kinase still bound, per cent of control [40]: 100%
3 | C=CC(=O)Nc1cc(NC(=O)c2ccc(C)c(NC(=O)c3ccno3)c2)cc(C(F)(F)F)c1 | 100 | 80 | 100 | 100 | 99 | 90 | 100 | 94 | 100 | 100 | 100 | 88 | 100 | 93 | 84 | 100 | 89 | 100 | 100 | 79 | kinase still bound, per cent of control [21]: 87%; kinase still bound, per cent of control [22]: 100%; kinase still bound, per cent of control [23]: 86%; kinase still bound, per cent of control [24]: 100%; kinase still bound, per cent of control [25]: 60%; kinase still bound, per cent of control [26]: 92%; kinase still bound, per cent of control [27]: 79%; kinase still bound, per cent of control [28]: 84%; kinase still bound, per cent of control [29]: 100%; kinase still bound, per cent of control [30]: 100%; kinase still bound, per cent of control [31]: 100%; kinase still bound, per cent of control [32]: 100%; kinase still bound, per cent of control [33]: 100%; kinase still bound, per cent of control [34]: 86%; kinase still bound, per cent of control [35]: 91%; kinase still bound, per cent of control [36]: 45%; kinase still bound, per cent of control [37]: 100%; kinase still bound, per cent of control [38]: 98%; kinase still bound, per cent of control [39]: 100%; kinase still bound, per cent of control [40]: 1.2%
